Measured values reported in patent US20090092664A1, “POLYMER-METAL CHELATOR CONJUGATES AND USES THEREOF” (UNIVERSITY OF KENTUCKY RESEARCH FOUNDATION, priority 2007, published 2009).
One block for each molecule: values may come before it.

What was measured:
[1] = cited from earlier work
HL-60/VCR cells = experiment: MTT cell viability assay, HL-60/VCR leukemia cells; format: cell-based, human
Procedure: (§1) FIGS. 1A-B: […] Cell viability was determined with the MTT assay. […] Data are represented as the mean±standard error (SE). […] San Diego, Calif.).

HL-60/ADR cells = experiment: MTT cell viability assay, HL-60/ADR leukemia cells; format: cell-based, human
Procedure: as §1

HL-60 cells [2] = experiment: Intracellular ROS (H2DCFDA), HL-60 cells; format: cell-based, human; conditions: D-pen 200 μM, cupric sulfate 10 μM, catalase 500 U/mL with D-pen plus cupric sulfate
Procedure: (§2) FIGS. 4A-B: D-pen in the presence of cupric sulfate generates intracellular ROS in breast cancer and leukemia cells. […] Cells were incubated without (positive control) or with H2O2, H2O2 plus catalase, cupric sulfate, D-pen, D-pen plus cupric sulfate, D-pen plus cupric sulfate plus catalase in media. Unloaded cells were used as negative control. The cell associated fluorescence was measured at 30, 60, 90 min at excitation and emission of 485±20 nm and 530±25 nm, respectively. Data are reported as the DCF fluorescence (fold increase versus control).
(§3) 2′-7′-dichlorodihydrofluorescein diacetate (H2DCFDA) was used as an indicator of intracellular ROS generation. H2DCFDA is a cell permeable probe, it enters the cell and is deacetylated to a non-fluorescent product, 2′-7′-dichlorodihydrofluorescein (H2DCF) by cellular esterases and is oxidized by ROS to a fluorescent product, 2′-7′-dichlorofluorescein (DCF). MCF-7 and HL-60 cells were loaded with H2DCFDA and were seeded in a 96 well plate at a concentration of 3×10^4 cells/well. Briefly, cells were incubated with PBS buffer containing 5 μM H2DCFDA (dissolved in DMSO) for 30 min at 37° C. H2DCFDA was then removed and cells were washed twice with fresh PBS to remove excess H2DCFDA. Cells were then incubated with either drug in media or media alone (positive control). Non-H2DCFDA loaded cells were used as negative control. The fluorescence of control and sample wells was recorded at excitation 485±20 nm, emission 530±25 nm with Biotek FL600 (Biotek Instruments, Winooski, Vt.) at 30, 60, and 90 min. Then data is reported as DCF fluorescence (fold increase vs. control) corresponding to the increase of fluorescence associated with the sample cells compared to that of untreated cells.

MCF-7 cells [3] = experiment: Intracellular ROS (H2DCFDA), MCF-7 cells; format: cell-based, human; conditions: for intracellular ROS generation (in words): D-pen 200 μM, cupric sulfate 10 μM, catalase 500 U/mL with D-pen plus cupric sulfate
Procedure: as §2, §3

HL-60 cells [4] = conditions: cupric sulfate alone 0.1-50 μM, data not shown
HL-60 cells [5] = experiment: In-vitro cytotoxicity of gelatin-D-pen conjugate (MTT); conditions: cupric sulfate up to 100 μM, p>0.05 versus control
Procedure: Cells (2×10^4) were incubated with gelatin alone (1 mg/mL), D-pen alone (100 μM), gelatin (1 mg/mL) plus D-pen (100 μM), and gelatin-D-pen conjugate (1 mg/mL) After every 2 day interval media was replaced with fresh media. MTT assay was performed on day 2, 4, 6, 8 and 10. Data represents mean±SD (n=6). **p<0.01 and ***p<0.001 compared to gelatin plus D-pen.
In-vitro cytotoxicity of gelatin-D-pen conjugate. The HL-60 cells were seeded at a density of 2×10^4 cells/mL in a 96 well plate. […] The above experiments were repeated with the copper pre-treated cells. Cell viability was determined at 24 and 72 h with MTT assay.

BT474 cells = experiment: MTT cell viability assay, BT474 breast cancer cells; format: cell-based, human
Procedure: FIGS. 2A-B: […] Cell viability was determined with MTT assay. […] Inhibitory concentration (IC50) was reported as mean±S.E. […] Data are represented as the mean±standard error (SE). […] San Diego, Calif.).

MCF-7 cells [6] = system: MCF-7 cells
Procedure: (§4) Cell viability was determined with MTT assay. Absorbance was measured at 595 nm and adjusted to the absorbance of untreated cells. Data represent mean±SE; n=12 (two independent experiments performed in n=6). Inhibitory concentration (IC50) was reported as mean±S.E.
(§5) Cell viability was measured using the 3-(4,5-dimethyl-2-yl)-2,5-diphenylteraolium bromide (MTT) assay. The adherent breast cancer cells (MCF-7 and BT474) were seeded at an initial concentration of 3×10^4 cells/well 24 h prior to the commencement of the experiments to allow them to attach, while the suspension leukemia cells, HL-60, HL-60-/VCR and HL-60/ADR were seeded at 3×10^4 cells/well on the same day of the experiment in a 96 well plate. […] The MTT assay was performed at 48 h and absorbance was measured with the microplate reader (Biotek ELx 800, Biotek Instruments, Winooski, Vt.) at a wavelength of 595 nm. Data is reported as cell viability (% control) and corresponds to the percent viable cells compared to untreated cells.
(§6) Data are represented as the mean±standard error (SE). Each experimental group consisted of n=6 and experiments were repeated two times. […] The IC50 was calculated with GraphPad Prism® non-linear regression program.

HL-60 cells [7] = experiment: cells; conditions: Homo sapiens, HL-60, 48 h
Procedure: Cell viability was determined with the MTT assay. Absorbance was measured at 595 nm and adjusted to the absorbance of untreated cells. Data represent mean±SE; n=12 (two independent experiments performed in n=6). Inhibitory concentrations (IC50) were reported as the mean±S.E in the figure legend.
as §5, §6

MCF-7 cells [8] = experiment: cells; conditions: Homo sapiens, MCF7, 48 h
Procedure: as §4, §5, §6

HL-60 cells [9] = format: cell-based, human
Procedure: FIG. 19: Cellular uptake of D-pen. D-pen (100 μM) was added to HL-60 (1×10^6) cells in PBS (pH 7.4) in a 24-well plate at 37° C. in 5% CO2 incubator. Cells were separated by centrifugation and the supernatant was analyzed by HPLC assay for D-pen concentration. Data represents mean±SD (n=4).
Quantitative cell uptake of free D-pen. The quantitative cell uptake of free D-pen was investigated in HL-60 cells. Briefly, D-pen (100 μM) was incubated with HL-60 (1×10^6) cells in PBS, pH 7.4 at 37° C. in a 5% CO2 incubator. Cells were incubated for 1-4 h. At pre-determined time the cells were separated by centrifugation and the supernatant was analyzed for the remaining concentration of D-pen as present as either free D-pen or D-pen disulfide using the HPLC assay previously described (Gupte and Mumper, 2007).

HL-60 cells [10] = experiment: Cytotoxicity of PGA-D-pen conjugate (MTT), HL-60; format: cell-based, human; conditions: HL-60, 48 h
Procedure: (§7) Cell Culture and Cytotoxicity: The P388 cells and HL-60 cells were plated at 1×10^4 and 4×10^4 cells respectively in 200 μl of medium per well in round bottom 96-well microwell plates. The MDA-MB-468 cells were plated at 1×10^4 cells/well in 96-well flat bottom microwell plates and allowed to attach overnight. Equal volumes of PGA-D-pen conjugate, PGA, D-pen, PGA+D-pen or PBS were added and the plates were incubated for 48 h (37° C., 5% CO2). 20 μl of MTT reagent (5 mg/ml in PBS; Sigma) was added to each well and re-incubated for 3-4 h to allow formation of formazan crystals. The round bottom plates were centrifuged at 200 g for 5 min. Subsequently, the supernatant was aspirated and 200 μl of DMSO were added to each well and the plate was incubated at room temperature for 1 h to lyse the cells and solubilize formazan. The optical density of each well at 570 nm was measured on a Synergy™ 2 Multi-Detection Microplate Reader (Biotek, Winooski, Vt.). Percent viability in treated wells was calculated as the percentage of optical density in control wells.

P388 cells = experiment: Cytotoxicity of PGA-D-pen conjugate (MTT), P388; format: cell-based; conditions: P388, 48 h
Procedure: as §7

MDA-MB-468 cells = experiment: Cytotoxicity of PGA-D-pen conjugate (MTT), MDA-MB-468; format: cell-based; conditions: MDA-MB-468, 48 h
Procedure: as §7

HL-60 cells [11] = experiment: Intracellular ROS (carboxy-H2DCFDA), HL-60 cells; format: cell-based, human; conditions: naive HL-60, carboxy-H2DCFDA 25 μM, 8 h after treatment
[12] = cited from earlier work; remark: listed apart in the source
[13] = cupric sulfate alone 0.1-50 μM, data not shown

Molecule: CCCCCCOC(=O)[C@H](N)C(C)(C)S [hexyl-D-pen-ester]
- Log P [1]: 1.61

Molecule: O=S(=O)([O-])[O-].[Cu+2] [cupric sulfate]
- loss in cell viability (HL-60/VCR cells; [13]): did not result in any appreciable loss in cell viability
- loss in cell viability (HL-60/ADR cells; [13]): did not result in any appreciable loss in cell viability
- intracellular ROS generation (in words) (HL-60 cells [2]): failed to produce any ROS
- intracellular ROS generation (in words) (MCF-7 cells [3]): failed to produce any ROS
- loss in cell viability (HL-60 cells [4]): did not result in any appreciable loss in cell viability
- effect of copper pre-treatment on cell number or viability (HL-60 cells [5]): did not result in statistically significant decrease in cell number or viability

- fold difference between IC50 of D-pen plus cupric sulfate and IC50 of H2O2 alone (HL-60/VCR cells): ~4 fold
- IC50 (HL-60/VCR cells; Homo sapiens, HL60/VCR, 48 h, MTT, D-pen with cupric sulfate 10 μM): 31.5 ± 1.1 µM
- IC50 (HL-60/ADR cells; Homo sapiens, HL60/ADR, 48 h, MTT, D-pen (1-400 μM) with cupric sulfate 10 μM): 162.5 ± 1.1 µM
- fold difference between IC50 of D-pen plus cupric sulfate and IC50 of H2O2 alone (BT474 cells; BT474): ~3 fold
- IC50 (BT474 cells; Homo sapiens, BT-474, BT474, 48 h, MTT): 96.1 ± 1.1 µM
- fold difference between IC50 of D-pen plus cupric sulfate and IC50 of H2O2 alone (MCF-7 cells [6]): approximately 2 fold
- IC50 (HL-60 cells [7]): 20 ± 1 µM
- IC50 (MCF-7 cells [8]): 116 ± 1.6 µM
Molecule: OO [H2O2, hydrogen peroxide]
- ROS generated compared to D-pen plus cupric sulfate (MCF-7 cells [3]; H2O2 alone 100 μM): 5 fold

- cell uptake of free D-pen (in words) (HL-60 cells [9]): not to enter leukemia cells
Molecule: CC(C)(S)[C@@H](N)C(=O)O [D-pen, D-penicillamine]
- intracellular ROS generation (in words) (HL-60 cells [2]): failed to produce any ROS
- intracellular ROS generation (in words) (MCF-7 cells [3]): failed to produce any ROS
- reduction in cell viability (in words) (HL-60 cells [10]): did not cause significant reduction in cell viability
- reduction in cell viability (in words) (P388 cells): did not cause significant reduction in cell viability
- reduction in cell viability (in words) (MDA-MB-468 cells): did not cause significant reduction in cell viability
- intracellular ROS levels (in words) (HL-60 cells [11]): no increase in intracellular ROS
- Log P [1]: −0.39
- half-life, biphasic elimination from the blood, first value [12]: 6 to 7 min
- half-life, biphasic elimination from the blood, second value [12]: 52 to 55 min

Molecule: catalase
- intracellular ROS generation (in words) (HL-60 cells [2]): completely inhibited ROS generation
- intracellular ROS generation (in words) (MCF-7 cells [3]): completely inhibited ROS generation
